Assay results reported in PMC8980701 (Neuropharmacology, 2020).
Where a name gives a salt, the structure may show the parent alone.

Legend:
Format in all cases: in vivo, male Sprague-Dawley rats
[1] = test system: cocaine self-administration; assay: Cocaine self-administration; conditions: for Active Lever Presses / Inactive Lever Presses: cocaine 0.25 mg/kg/inf, mean ± SEM
cocaine-seeking behavior = assay: Cocaine-seeking behavior test
[2] = Pharmacokinetics in plasma after single s.c. dose, alone or in combination; conditions: for half-life: t1/2; for concentration at 0 h / concentration at 15 min / concentration at 30 min / concentration at 60 min / concentration at 120 min / concentration at 180 min / concentration at 240 min / concentration at 360 min: Plasma concentration
[3] = lorcaserin 0.5 mg/kg s.c., 15 min pretreatment
[4] = lorcaserin 1 mg/kg s.c., 15 min pretreatment
[5] = rat plasma, single dose 0.5 mg/kg s.c., drug alone, mean ± SEM
[6] = rat plasma, single dose 1 mg/kg s.c., drug alone, mean ± SEM
[7] = rat plasma, single dose 3 mg/kg s.c., drug alone, mean ± SEM
[8] = pimavanserin 3 mg/kg s.c., 30 min pretreatment
[9] = male, Sprague-Dawley, rat, in vivo, sc, 0.5 mg/kg
[10] = male, Sprague-Dawley, rat, in vivo, sc, 1 mg/kg
[11] = male, Sprague-Dawley, rat, in vivo, sc, 3 mg/kg
[12] = male, Sprague-Dawley, rat, in vivo, sc, 10 mg/kg

C[C@H]1CNCCc2ccc(Cl)cc21 [Lorcaserin, (1R)-8-chloro-2,3,4,5-tetrahydro-1-methyl-1H-3-benzazepine]
Effect on cocaine intake (infusions) ([1]; acute lorcaserin 1 mg/kg, vs. control, p < 0.05, Fig. 1B): suppressed cocaine intake
Active Lever Presses [1, 3]: 536.23 ± 16.03
Inactive Lever Presses [1, 3]: 2.08 ± 0.40
Active Lever Presses [1, 4]: 492.46 ± 18.99
Inactive Lever Presses [1, 4]: 3.00 ± 0.91
Increase of latency to the first response vs. control (cocaine-seeking behavior; acute lorcaserin 1 mg/kg): ~ 6.7 fold
Decrease of cue-reinforced lever presses vs. control (cocaine-seeking behavior; acute lorcaserin 1 mg/kg, FA day 10, p < 0.05): ~ 64.4%
Suppression of inactive lever presses vs. control (cocaine-seeking behavior; acute lorcaserin 1 mg/kg, p < 0.05): ~ 64.6%
Latency to the first response (cocaine-seeking behavior; acute lorcaserin 1 mg/kg, p < 0.05 vs. control (14.39 ± 2.41 s)): 95.83 ± 35.78 s
Suppression of inactive lever presses vs. control (cocaine-seeking behavior; repeated lorcaserin 1 mg/kg): n.s.
Decrease of cue-reinforced lever presses vs. control (cocaine-seeking behavior; repeated lorcaserin 1 mg/kg twice daily for 10 days, FA day 10, p < 0.05): ~ 36.4%
Latency to the first response (cocaine-seeking behavior; repeated lorcaserin 1 mg/kg, n.s. vs. control (14.39 ± 2.41 s)): 30.15 ± 5.52 s
AUCExtrap [2, 5]: 12.68 ± 2.45%
λ [2, 5]: 0.31 ± 0.03 h⁻¹
AUCExtrap [2, 6]: 8.06 ± 0.47%
λ [2, 6]: 0.39 ± 0.02 h⁻¹
AUCExtrap [2, 7]: 7.97 ± 0.50%
λ [2, 7]: 0.38 ± 0.01 h⁻¹

CC(C)COc1ccc(CNC(=O)N(Cc2ccc(F)cc2)C2CCN(C)CC2)cc1 [Pimavanserin]
Effect on cocaine infusions ([1]; acute pimavanserin 0.3, 1, 3 mg/kg, vs. control, Fig. 1A): No main effect
Active Lever Presses [1, 8]: 523.00 ± 54.57
Inactive Lever Presses [1, 8]: 3.44 ± 1.74
Effect on inactive lever presses (cocaine-seeking behavior; acute and repeated pimavanserin 3 mg/kg, FA day 10): No main effect
Decrease of cue-reinforced lever presses vs. control (cocaine-seeking behavior; acute pimavanserin 3 mg/kg, FA day 10, p < 0.05): ~ 41.4%
Latency to the first response (cocaine-seeking behavior; acute pimavanserin 3 mg/kg, n.s. vs. control (14.39 ± 2.41 s)): 29.83 ± 5.43 s
Increase of latency to the first response vs. control (cocaine-seeking behavior; repeated pimavanserin 3 mg/kg): ~ 2.5 fold
Decrease of cue-reinforced lever presses vs. control (cocaine-seeking behavior; repeated pimavanserin 3 mg/kg twice daily for 10 days, FA day 10, p < 0.05): ~ 27.1%
Latency to the first response (cocaine-seeking behavior; repeated pimavanserin 3 mg/kg, p < 0.05 vs. control (14.39 ± 2.41 s)): 35.25 ± 7.81 s
AUC0-inf [2, 9]: 15.02 ± 0.32 ng·h/mL
AUC0-t [2, 9]: 14.40 ± 0.31 ng·h/mL
AUCExtrap [2, 9]: 3.89 ± 1.42%
Cl/F [2, 9]: 556.7 ± 12.2 mL/min/kg
Cmax [2, 9]: 12.17 ± 0.38 ng/mL
Half-life, t1/2 [2, 9]: 77.4 ± 27 min
Tmax [2, 9]: 17.4 ± 2.4 min
λ [2, 9]: 0.76 ± 0.14 h⁻¹
Plasma concentration ([2]; male, Sprague-Dawley, rat, in vivo, sc, 0.5 mg/kg, 0 h): 0.08 ± 0.05 ng/mL
Plasma concentration ([2]; male, Sprague-Dawley, rat, in vivo, sc, 0.5 mg/kg, 15 min): 12.15 ± 0.39 ng/mL
Plasma concentration ([2]; male, Sprague-Dawley, rat, in vivo, sc, 0.5 mg/kg, 30 min): 9.93 ± 0.50 ng/mL
Plasma concentration ([2]; male, Sprague-Dawley, rat, in vivo, sc, 0.5 mg/kg, 60 min): 5.40 ± 0.23 ng/mL
Plasma concentration ([2]; male, Sprague-Dawley, rat, in vivo, sc, 0.5 mg/kg, 120 min): 2.09 ± 0.13 ng/mL
Plasma concentration ([2]; male, Sprague-Dawley, rat, in vivo, sc, 0.5 mg/kg, 180 min): 0.86 ± 0.11 ng/mL
Plasma concentration ([2]; male, Sprague-Dawley, rat, in vivo, sc, 0.5 mg/kg, 240 min): 0.45 ± 0.10 ng/mL
Plasma concentration ([2]; male, Sprague-Dawley, rat, in vivo, sc, 0.5 mg/kg, 360 min): 0.13 ± 0.06 ng/mL
AUC0-inf [2, 10]: 41.72 ± 2.7 ng·h/mL
AUC0-t [2, 10]: 41.27 ± 2.64 ng·h/mL
AUCExtrap [2, 10]: 1.09 ± 0.28%
Cl/F [2, 10]: 409.2 ± 30.2 mL/min/kg
Cmax [2, 10]: 30.13 ± 2.17 ng/mL
Half-life, t1/2 [2, 10]: 53.4 ± 3 min
λ [2, 10]: 0.79 ± 0.04 h⁻¹
Plasma concentration ([2]; male, Sprague-Dawley, rat, in vivo, sc, 1 mg/kg, 0 h): 0.05 ± 0.03 ng/mL
Plasma concentration ([2]; male, Sprague-Dawley, rat, in vivo, sc, 1 mg/kg, 15 min): 30.13 ± 2.17 ng/mL
Plasma concentration ([2]; male, Sprague-Dawley, rat, in vivo, sc, 1 mg/kg, 30 min): 24.50 ± 1.59 ng/mL
Plasma concentration ([2]; male, Sprague-Dawley, rat, in vivo, sc, 1 mg/kg, 60 min): 16.8 ± 1.02 ng/mL
Plasma concentration ([2]; male, Sprague-Dawley, rat, in vivo, sc, 1 mg/kg, 120 min): 6.34 ± 0.39 ng/mL
Plasma concentration ([2]; male, Sprague-Dawley, rat, in vivo, sc, 1 mg/kg, 180 min): 3.55 ± 0.81 ng/mL
Plasma concentration ([2]; male, Sprague-Dawley, rat, in vivo, sc, 1 mg/kg, 240 min): 1.12 ± 0.14 ng/mL
Plasma concentration ([2]; male, Sprague-Dawley, rat, in vivo, sc, 1 mg/kg, 360 min): 0.35 ± 0.08 ng/mL
AUCExtrap [2, 11]: 4.26 ± 0.68%
λ [2, 11]: 0.59 ± 0.03 h⁻¹
AUC0-inf ([2]; male, Sprague-Dawley, rat, in vivo, sc, 3 mg/kg, AUC0-inf): 198 ± 8.33 ng·h/mL
AUC0-t ([2]; male, Sprague-Dawley, rat, in vivo, sc, 3 mg/kg, AUC0-t): 189 ± 7.75 ng·h/mL
Cmax ([2]; male, Sprague-Dawley, rat, in vivo, sc, 3 mg/kg, CMAX): 79.5 ± 3.76 ng/mL
CL/F [2, 11]: 255 mL/min/kg
half-life ([2]; male, Sprague-Dawley, rat, in vivo, sc, 3 mg/kg, Half-life): 70.8 ± 3 min
concentration at 0 h [2, 11]: 0.02 ± 0.02 ng/mL
concentration at 15 min [2, 11]: 71.1 ± 5.89 ng/mL
concentration at 30 min [2, 11]: 74.5 ± 5.1 ng/mL
concentration at 60 min [2, 11]: 63.4 ± 3.59 ng/mL
concentration at 120 min [2, 11]: 39.8 ± 2.4 ng/mL
concentration at 180 min [2, 11]: 27.8 ± 2.37 ng/mL
concentration at 240 min [2, 11]: 15.7 ± 1.48 ng/mL
concentration at 360 min [2, 11]: 4.85 ± 0.62 ng/mL
Tmax ([2]; male, Sprague-Dawley, rat, in vivo, sc, 3 mg/kg, TMAX): 22.8 ± 3.6 min
AUCExtrap [2, 12]: 32.22 ± 4.18%
λ [2, 12]: 0.21 ± 0.02 h⁻¹
AUC0-inf ([2]; male, Sprague-Dawley, rat, in vivo, sc, 10 mg/kg, AUC0-inf): 1290 ± 112 ng·h/mL
AUC0-t ([2]; male, Sprague-Dawley, rat, in vivo, sc, 10 mg/kg, AUC0-t): 858 ± 54.7 ng·h/mL
Cmax ([2]; male, Sprague-Dawley, rat, in vivo, sc, 10 mg/kg, CMAX): 213 ± 15.9 ng/mL
CL/F [2, 12]: 135 mL/min/kg
half-life ([2]; male, Sprague-Dawley, rat, in vivo, sc, 10 mg/kg, Half-life): 218 ± 32.4 min
concentration at 0 h [2, 12]: 0.09 ± 0.41 ng/mL
concentration at 15 min [2, 12]: 170 ± 18.8 ng/mL
concentration at 30 min [2, 12]: 190 ± 19.9 ng/mL
concentration at 60 min [2, 12]: 208 ± 15.6 ng/mL
concentration at 120 min [2, 12]: 179 ± 11.6 ng/mL
concentration at 180 min [2, 12]: 154 ± 15.1 ng/mL
concentration at 240 min [2, 12]: 116 ± 7.99 ng/mL
concentration at 360 min [2, 12]: 79.9 ± 6.24 ng/mL
Tmax ([2]; male, Sprague-Dawley, rat, in vivo, sc, 10 mg/kg, TMAX): 57.6 ± 15 min
Tmax ([2]; male, Sprague-Dawley, rat, in vivo, sc, TMAX): 15 to 60 min
half-life ([2]; male, Sprague-Dawley, rat, in vivo, sc): 53 to 218 min

Cc1cc2c(cc1Cl)N(C(=O)Nc1ccc(Oc3cccnc3C)nc1)CC2 [SB242084, 6-chloro-5-methyl-1-[[2-(2-methylpyrid-3-yloxy)pyrid-5-yl]carbamoyl] indolinedihydrochloride]
Effect on lorcaserin-evoked suppression of cocaine intake ([1]; SB242084 0.5 mg/kg i.p. plus lorcaserin 1 mg/kg, p < 0.05, Fig. 1B): prevented this lorcaserin-evoked suppression of cocaine intake
